Several values for one entry are separate records, joined by “and”; a condition that tells them apart may be missing. Equal entries are not always repeated.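 Interpolation was linear, between the two tested concentrations surrounding the appropriate level; five concentrations were tested over 48 hours in 96-well plates. GI50 is the concentration that inhibits growth by half. Definition used: TGI = concentration required for complete inhibition of growth.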
Tests used:
Experiment in all cases: DTP human tumour cell line panel, 48 h
BT-549 breast = test system: BT-549 breast
CAKI-1 renal = test system: CAKI-1 renal
LOX IMVI melanoma = test system: LOX IMVI melanoma
M14 melanoma = test system: M14 melanoma
MDA-MB-231 breast = test system: MDA-MB-231 breast
MDA-MB-435 = test system: MDA-MB-435
MOLT-4 leukemia = test system: MOLT-4 leukemia
SF-295 CNS = test system: SF-295 CNS
SW-620 colon = test system: SW-620 colon
UO-31 renal = test system: UO-31 renal

Row | SMILES | GI50 (BT-549 breast) [µM] | TGI (BT-549 breast) | GI50 (CAKI-1 renal) [µM] | TGI (CAKI-1 renal) [µM] | GI50 (LOX IMVI melanoma) | TGI (LOX IMVI melanoma) | GI50 (M14 melanoma) | TGI (M14 melanoma) [µM] | GI50 (MDA-MB-231 breast) [µM] | TGI (MDA-MB-231 breast) [µM] | GI50 (MDA-MB-435) | TGI (MDA-MB-435) | GI50 (MOLT-4 leukemia) [µM] | TGI (MOLT-4 leukemia) | GI50 (SF-295 CNS) [µM] | TGI (SF-295 CNS) | GI50 (SW-620 colon) | TGI (SW-620 colon) [µM] | GI50 (UO-31 renal) | TGI (UO-31 renal)
1 | C=C1C(=O)O[C@@H]2C1CC(=O)C(C)CC/C=C(\C)CCC[C@H](C)[C@H]2OC(C)=O (stereo partly specified) | 13 | 30.2 µM | 11.9 | 24.4 | 2.15 µM | 6.22 µM | 4.24 µM | 16 | 15.5 | 33.5 | 14.7 µM | 28 µM | 10.9 | 35 µM | 19.8 | 36.2 µM | 9.18 µM | 21.9 | 11.9 µM | 29.5 µM
2 | N=C(N)c1nn(C2OC(CO)C(O)C2O)c2nc[nH]c(=O)c12 (stereo unspecified) | 0.33 | 2.67 µM | 0.264 | 1.2 | 0.337 µM | 1.84 µM | 0.454 µM | 1.75 | 0.248 | 0.778 | 0.311 µM | 1.16 µM | 0.491 | 4.12 µM | 0.643 | 3.26 µM | 0.53 µM | 3.28 | 0.332 µM | 2.62 µM
3 | O=C1c2ccccc2C(=O)N1CC1(C(=O)O)NCCS1(=O)=O (stereo unspecified) |  | > 100 µM |  | > 100 |  | > 100 µM |  | > 100 |  | > 100 |  | > 100 µM |  | > 100 µM |  | > 100 µM |  | > 100 |  | > 100 µM
4 | Fc1ccc2[nH]cc(Cc3c[nH]c4ccc(F)cc34)c2c1 | 13.9 | 30.3 µM | 12.1 | 34.3 | 16 µM | 47.1 µM | 20.2 µM | 42.9 | 16.7 | 46.5 | 7.46 µM | 24.9 µM | 1.97 | 22.1 µM | 20.6 | 47.9 µM | 23.7 µM | 58.8 | 13.7 µM | 33.7 µM
5 | CCc1ccc(NCc2cc(OC)c(OC)c(OC)c2)cc1 |  | > 100 µM and 34.8 µM |  | > 100 | 0.543 µM and 0.149 µM | 25.7 µM and 43.8 µM | 0.261 µM and 0.392 µM | 27.6 | 1.27 | > 100 | 0.0232 µM and 0.0172 µM | 45.8 µM and 31.3 µM |  | 87.2 µM and > 91.5 µM | 0.0741 | 6.29 µM and 1.99 µM | 0.0871 µM and 0.0541 µM | > 100 | 1.37 µM and 3.95 µM | 55.8 µM and 62.6 µM
6 | Cc1ccc2[nH]c(C(=O)NN3C(=O)CSC34CCCCC4C)c(-c3ccccc3)c2c1 (stereo unspecified) | 20 | 36.7 µM | 16.1 | 32.2 | 18.9 µM | 35.6 µM | 19.5 µM | 37.7 | 17 | 34.5 | 17.9 µM | 34.7 µM | 9.38 | 28.4 µM | 16 | 31.9 µM | 23.8 µM | 60.1 | 15.5 µM | 30.9 µM
7 | CC(C)(C(=O)NN)c1ccccc1 |  | > 100 µM |  | > 100 |  | > 100 µM |  | > 100 |  | > 100 |  | > 100 µM |  | > 100 µM |  | > 100 µM |  | > 100 |  | > 100 µM
8 | O=C(CCl)c1ccc([N+](=O)[O-])o1 | 2.24 | 6.85 µM | 1.73 | 3.24 | 1.47 µM | 3.19 µM | 2.18 µM | 5.06 | 4.9 | 13.7 | 1.89 µM | 4.22 µM | 1.15 |  | 5.26 | 17.4 µM | 0.886 µM | 2.54 | 2.14 µM | 6.7 µM
9 | CCOC(=O)c1c2c(n(CC(C)C)c1C)-c1nc[nH]c1C(=O)C2=O | 16.4 | 30.4 µM | 17.7 | 57.8 | 7.91 µM | 20.5 µM | 23 µM | 40.5 | 6.85 | 20.1 | 18.2 µM | 32.6 µM | 2.57 | 9.45 µM | 19.2 | 35.9 µM | 20.8 µM | 39.1 | 16.3 µM | 29.9 µM
10 | O=C(CCN1CCCC1)Nc1ccc2c(NCc3ccc(F)cc3)c3ccccc3nc2c1 | 1.2 | 2.67 µM | 1.42 | 5.42 | 0.38 µM | 1.48 µM | 1.07 µM | 2.4 | 0.454 | 1.91 | 0.692 µM | 1.97 µM | 0.398 | 2.34 µM | 0.59 | 2.03 µM | 0.353 µM | 1.53 | 1.33 µM | 3.09 µM
